{"source": "patent EP4621409A1", "about": "“NOVEL ANTIVIRAL PEPTIDE” (Daehannupharm Co., Ltd., priority 2022, dated 2024)", "key": {"dengue virus": {"system": "dengue virus", "settings": "for IC50: dengue virus incubated with peptide 37°C 1 hour, Vero cells, 2 days, triplicate", "protocol": "The inoculated cells were cultured overnight.\nThe SP-049 peptide was prepared such that the maximum concentration was 125 nM and the minimum concentration was 0.98 nM (concentrations: 125 nM; 62.5 nM; 31.25 nM; 15.62 nM; 7.81 nM; 3.91 nM; 1.95 nM; and 0.98 nM).\nThe present inventors calculated the inhibition rate (% inhibition) of each well based on the formula of the standard curve by converting the average Ct value of wells infected with dengue virus without peptide treatment in the same plate into an infection rate of 100%, and using this to create a standard curve. Each value was obtained through three repeated experiments (in triplicate), and IC50 values were derived using GraphPad Prism 5 software."}, "HCV": {"system": "HCV", "settings": "Table 1 in Cheng, Guofeng, et al.; cited from earlier work"}}, "note": "Where two headings read alike, the source gives them in different places. No end group written: not given here."}
{"sequence": "DFWSKLVYFFAEIIRFLS [SP-143, DFWSKLVYFFAEIIRFLS]", "values": [{"measurement": "IC50", "setting": "SARS-CoV-2 virus", "value": 19.5, "unit": "µM"}, {"measurement": "% Inhibition", "setting": "dengue virus; Conc. 0.98 nM", "value": 59.95, "unit": "%"}, {"measurement": "% Inhibition", "setting": "dengue virus; Conc. 1.95 nM", "value": -28.80, "unit": "%"}, {"measurement": "% Inhibition", "setting": "dengue virus; Conc. 3.91 nM", "value": 42.98, "unit": "%"}, {"measurement": "% Inhibition", "setting": "dengue virus; Conc. 7.81 nM", "value": 49.26, "unit": "%"}, {"measurement": "% Inhibition", "setting": "dengue virus; Conc. 15.63 nM", "value": 53.07, "unit": "%"}, {"measurement": "% Inhibition", "setting": "dengue virus; Conc. 31.25 nM", "value": 79.28, "unit": "%"}, {"measurement": "% Inhibition", "setting": "dengue virus; Conc. 62.50 nM", "value": 94.07, "unit": "%"}, {"measurement": "% Inhibition", "setting": "dengue virus; Conc. 125.00 nM", "value": 99.42, "unit": "%"}, {"measurement": "IC50", "setting": "dengue virus", "value": 0.0161, "unit": "µM"}]}
{"sequence": "DKIVLFILSILEKIYNLL [SP-171, DKIVLFILSILEKIYNLL]", "values": [{"measurement": "IC50", "setting": "SARS-CoV-2 virus", "value": 18.7, "unit": "µM"}]}
{"sequence": "DVTRLLELILDVLAYIIS [SP-151, DVTRLLELILDVLAYIIS]", "values": [{"measurement": "IC50", "setting": "SARS-CoV-2 virus", "value": 5, "unit": "µM"}]}
{"sequence": "DWLRIIWDWVCSVVSDFK [SEQ ID NO: 301]", "values": [{"measurement": "antiviral activity compared among C5A analogs derived from HCV 1a, 1b, 2a, 3a, 4a, 5a and 6a", "setting": "HCV", "value": "higher antiviral activity"}]}
{"sequence": "ESLKNFWESLWKFFTHFF [SP-001, ESLKNFWESLWKFFTHFF]", "values": [{"measurement": "% Inhibition", "setting": "dengue virus; Conc. 7.81 nM", "value": -0.47, "unit": "%"}, {"measurement": "% Inhibition", "setting": "dengue virus; Conc. 15.63 nM", "value": 45.60, "unit": "%"}, {"measurement": "% Inhibition", "setting": "dengue virus; Conc. 31.25 nM", "value": 57.96, "unit": "%"}, {"measurement": "% Inhibition", "setting": "dengue virus; Conc. 62.50 nM", "value": 78.78, "unit": "%"}, {"measurement": "% Inhibition", "setting": "dengue virus; Conc. 125.00 nM", "value": 82.51, "unit": "%"}, {"measurement": "% Inhibition", "setting": "dengue virus; Conc. 250.00 nM", "value": 100.00, "unit": "%"}, {"measurement": "% Inhibition", "setting": "dengue virus; Conc. 500.00 nM", "value": 100.00, "unit": "%"}, {"measurement": "% Inhibition", "setting": "dengue virus; Conc. 1000.00 nM", "value": 100.00, "unit": "%"}, {"measurement": "IC50", "setting": "dengue virus", "value": 0.0226, "unit": "µM"}]}
{"sequence": "FSFWVWLDNIIDLVKKYI [SP-114, FSFWVWLDNIIDLVKKYI]", "values": [{"measurement": "IC50", "setting": "SARS-CoV-2 virus", "value": 19.5, "unit": "µM"}]}
{"sequence": "FTFWTWLEAILDLIKKHI [SP-116, FTFWTWLEAILDLIKKHI]", "values": [{"measurement": "IC50", "setting": "SARS-CoV-2 virus", "value": 4.1, "unit": "µM"}]}
{"sequence": "FTNFHRQLFCWIDKWIDL [SP-191, FTNFHRQLFCWIDKWIDL]", "values": [{"measurement": "% Inhibition", "setting": "dengue virus; Conc. 39.06 nM", "value": -20.14, "unit": "%"}, {"measurement": "% Inhibition", "setting": "dengue virus; Conc. 78.13 nM", "value": -14.44, "unit": "%"}, {"measurement": "% Inhibition", "setting": "dengue virus; Conc. 156.25 nM", "value": 5.32, "unit": "%"}, {"measurement": "% Inhibition", "setting": "dengue virus; Conc. 312.50 nM", "value": 46.78, "unit": "%"}, {"measurement": "% Inhibition", "setting": "dengue virus; Conc. 625.00 nM", "value": 29.53, "unit": "%"}, {"measurement": "% Inhibition", "setting": "dengue virus; Conc. 1250.00 nM", "value": 64.10, "unit": "%"}, {"measurement": "% Inhibition", "setting": "dengue virus; Conc. 2500.00 nM", "value": 98.50, "unit": "%"}, {"measurement": "% Inhibition", "setting": "dengue virus; Conc. 5000.00 nM", "value": 99.99, "unit": "%"}, {"measurement": "IC50", "setting": "dengue virus", "value": 0.776, "unit": "µM"}]}
{"sequence": "ILDFFVGFIDWLVRYLNK [SP-046, ILDFFVGFIDWLVRYLNK]", "values": [{"measurement": "IC50", "setting": "SARS-CoV-2 virus", "value": 7.9, "unit": "µM"}, {"measurement": "% Inhibition", "setting": "dengue virus; Conc. 0.98 nM", "value": 3.30, "unit": "%"}, {"measurement": "% Inhibition", "setting": "dengue virus; Conc. 1.95 nM", "value": 3.30, "unit": "%"}, {"measurement": "% Inhibition", "setting": "dengue virus; Conc. 3.91 nM", "value": 5.60, "unit": "%"}, {"measurement": "% Inhibition", "setting": "dengue virus; Conc. 7.81 nM", "value": 15.33, "unit": "%"}, {"measurement": "% Inhibition", "setting": "dengue virus; Conc. 15.62 nM", "value": 36.10, "unit": "%"}, {"measurement": "% Inhibition", "setting": "dengue virus; Conc. 31.25 nM", "value": 100.00, "unit": "%"}, {"measurement": "% Inhibition", "setting": "dengue virus; Conc. 62.50 nM", "value": 100.00, "unit": "%"}, {"measurement": "% Inhibition", "setting": "dengue virus; Conc. 125.00 nM", "value": 100.00, "unit": "%"}, {"measurement": "IC50", "setting": "dengue virus", "value": 0.0177, "unit": "µM"}]}
{"sequence": "ILVRWLSHFFEYLDRFYT [SP-221, ILVRWLSHFFEYLDRFYT]", "values": [{"measurement": "IC50", "setting": "SARS-CoV-2 virus", "value": 19.5, "unit": "µM"}]}
{"sequence": "QSFLDIVWSIIDIFKEFC [SP-004, QSFLDIVWSIIDIFKEFC]", "values": [{"measurement": "IC50", "setting": "SARS-CoV-2 virus", "value": 8.9, "unit": "µM"}, {"measurement": "% Inhibition", "setting": "dengue virus; Conc. 7.81 nM", "value": -1.96, "unit": "%"}, {"measurement": "% Inhibition", "setting": "dengue virus; Conc. 15.63 nM", "value": 6.56, "unit": "%"}, {"measurement": "% Inhibition", "setting": "dengue virus; Conc. 31.25 nM", "value": 9.23, "unit": "%"}, {"measurement": "% Inhibition", "setting": "dengue virus; Conc. 62.50 nM", "value": 22.45, "unit": "%"}, {"measurement": "% Inhibition", "setting": "dengue virus; Conc. 125.00 nM", "value": 34.78, "unit": "%"}, {"measurement": "% Inhibition", "setting": "dengue virus; Conc. 250.00 nM", "value": 61.21, "unit": "%"}, {"measurement": "% Inhibition", "setting": "dengue virus; Conc. 500.00 nM", "value": 99.95, "unit": "%"}, {"measurement": "% Inhibition", "setting": "dengue virus; Conc. 1000.00 nM", "value": 100.00, "unit": "%"}, {"measurement": "IC50", "setting": "dengue virus", "value": 0.207, "unit": "µM"}]}
{"sequence": "SFLDIVWSIIDIFKEFCK [SP-003, SFLDIVWSIIDIFKEFCK]", "values": [{"measurement": "IC50", "setting": "SARS-CoV-2 virus", "value": 10.3, "unit": "µM"}, {"measurement": "% Inhibition", "setting": "dengue virus; Conc. 7.81 nM", "value": -6.03, "unit": "%"}, {"measurement": "% Inhibition", "setting": "dengue virus; Conc. 15.63 nM", "value": 38.56, "unit": "%"}, {"measurement": "% Inhibition", "setting": "dengue virus; Conc. 31.25 nM", "value": 71.23, "unit": "%"}, {"measurement": "% Inhibition", "setting": "dengue virus; Conc. 62.50 nM", "value": 63.98, "unit": "%"}, {"measurement": "% Inhibition", "setting": "dengue virus; Conc. 125.00 nM", "value": 99.91, "unit": "%"}, {"measurement": "% Inhibition", "setting": "dengue virus; Conc. 250.00 nM", "value": 100.00, "unit": "%"}, {"measurement": "% Inhibition", "setting": "dengue virus; Conc. 500.00 nM", "value": 100.00, "unit": "%"}, {"measurement": "% Inhibition", "setting": "dengue virus; Conc. 1000.00 nM", "value": 100.00, "unit": "%"}, {"measurement": "IC50", "setting": "dengue virus", "value": 0.022, "unit": "µM"}]}
{"sequence": "SWKEIVNLLYELLASLIR [SP-101, SWKEIVNLLYELLASLIR]", "values": [{"measurement": "IC50", "setting": "SARS-CoV-2 virus", "value": 11.6, "unit": "µM"}, {"measurement": "% Inhibition", "setting": "dengue virus; Conc. 7.81 nM", "value": -14.11, "unit": "%"}, {"measurement": "% Inhibition", "setting": "dengue virus; Conc. 15.63 nM", "value": 20.94, "unit": "%"}, {"measurement": "% Inhibition", "setting": "dengue virus; Conc. 31.25 nM", "value": 0.96, "unit": "%"}, {"measurement": "% Inhibition", "setting": "dengue virus; Conc. 62.50 nM", "value": 23.20, "unit": "%"}, {"measurement": "% Inhibition", "setting": "dengue virus; Conc. 125.00 nM", "value": 65.09, "unit": "%"}, {"measurement": "% Inhibition", "setting": "dengue virus; Conc. 250.00 nM", "value": 97.07, "unit": "%"}, {"measurement": "% Inhibition", "setting": "dengue virus; Conc. 500.00 nM", "value": 100.00, "unit": "%"}, {"measurement": "% Inhibition", "setting": "dengue virus; Conc. 1000.00 nM", "value": 100.00, "unit": "%"}, {"measurement": "IC50", "setting": "dengue virus", "value": 0.1, "unit": "µM"}]}
{"sequence": "WDCVQDIWEYIFRTAMKI [SP-185, WDCVQDIWEYIFRTAMKI]", "values": [{"measurement": "% Inhibition", "setting": "dengue virus; Conc. 39.06 nM", "value": -7.43, "unit": "%"}, {"measurement": "% Inhibition", "setting": "dengue virus; Conc. 78.13 nM", "value": 11.76, "unit": "%"}, {"measurement": "% Inhibition", "setting": "dengue virus; Conc. 156.25 nM", "value": 36.60, "unit": "%"}, {"measurement": "% Inhibition", "setting": "dengue virus; Conc. 312.50 nM", "value": 33.04, "unit": "%"}, {"measurement": "% Inhibition", "setting": "dengue virus; Conc. 625.00 nM", "value": 51.77, "unit": "%"}, {"measurement": "% Inhibition", "setting": "dengue virus; Conc. 1250.00 nM", "value": 89.53, "unit": "%"}, {"measurement": "% Inhibition", "setting": "dengue virus; Conc. 2500.00 nM", "value": 100.00, "unit": "%"}, {"measurement": "% Inhibition", "setting": "dengue virus; Conc. 5000.00 nM", "value": 100.00, "unit": "%"}, {"measurement": "IC50", "setting": "dengue virus", "value": 0.519, "unit": "µM"}]}
{"sequence": "WSEILREFLNLISLIWSR [SP-110, WSEILREFLNLISLIWSR]", "values": [{"measurement": "IC50", "setting": "SARS-CoV-2 virus", "value": 19.5, "unit": "µM"}]}
{"sequence": "YNLFDLLIYIWNKIFDDY [SP-049, YNLFDLLIYIWNKIFDDY]", "values": [{"measurement": "IC50", "setting": "SARS-CoV-2 virus", "value": 1.8, "unit": "µM"}, {"measurement": "% Inhibition", "setting": "dengue virus; Conc. 0.49 nM", "value": 24.20, "unit": "%"}, {"measurement": "% Inhibition", "setting": "dengue virus; Conc. 0.98 nM", "value": 20.16, "unit": "%"}, {"measurement": "% Inhibition", "setting": "dengue virus; Conc. 1.95 nM", "value": 39.14, "unit": "%"}, {"measurement": "% Inhibition", "setting": "dengue virus; Conc. 3.91 nM", "value": 45.30, "unit": "%"}, {"measurement": "% Inhibition", "setting": "dengue virus; Conc. 7.81 nM", "value": 93.03, "unit": "%"}, {"measurement": "% Inhibition", "setting": "dengue virus; Conc. 15.63 nM", "value": 100.00, "unit": "%"}, {"measurement": "% Inhibition", "setting": "dengue virus; Conc. 31.25 nM", "value": 100.00, "unit": "%"}, {"measurement": "% Inhibition", "setting": "dengue virus; Conc. 62.50 nM", "value": 100.00, "unit": "%"}, {"measurement": "IC50", "setting": "dengue virus", "value": 0.00385, "unit": "µM"}]}
